In patent publication US20240165113A1, “METHODS OF TREATMENT FOR LEUKEMIA” (DNA SEQ 2, Inc., priority 2021, published 2024) one finds Kd and GI50 data, which are given here for one compound.

Structures are written as SMILES. Where two headings read alike, the source gives them in different places.

The target of test [1] is T1, phosphorylated ABL1(T315I)(229-499) (Homo sapiens, UniProt P00519, T315I).
T1 construct: The protocol was adapted to generate phosphorylated 10×His-tev-ABL1(T315I)(229-499) for use in the SPR studies; made in house; host or cells: E. coli; autophosphorylated in vitro with ATP/MgCl2
T1 sequence (P00519 229-499 T315I): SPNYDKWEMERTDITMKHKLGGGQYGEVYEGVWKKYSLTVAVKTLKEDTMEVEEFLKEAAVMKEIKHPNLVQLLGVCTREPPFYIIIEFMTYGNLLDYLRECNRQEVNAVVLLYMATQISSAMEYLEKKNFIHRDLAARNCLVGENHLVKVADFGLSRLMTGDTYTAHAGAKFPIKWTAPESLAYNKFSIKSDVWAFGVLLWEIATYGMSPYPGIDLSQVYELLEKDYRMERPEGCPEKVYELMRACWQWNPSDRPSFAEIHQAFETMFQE
As to the kind of experiment: SPR binding to phosphorylated ABL1(T315I)(229-499). Conditions: Ni-NTA capture of 10xHis-tag. On the technique in general: SPR reads the build-up and loss of mass on a sensor chip optically.

Test [2] concerns human tumor cells. Conditions: growth of human tumor cells; cited from earlier work.

One may read the Kd as the equilibrium constant for the complex coming apart. By GI50 is commonly meant the concentration that inhibits growth by half. Consider `Nc1nc(N)c(N=O)c(OCC2CCCCC2)n1` [A-0001, 6-Cyclohexylmethyloxy-5-nitroso-pyrimidine-2,4-diamine], for which the Kd came to 13 µM in test [1] (HBST buffer, read-out: Phosphorylated ABL1(T315I)(229-499) in HBST buffer KD) and 16 µM in test [1] (PBST buffer, read-out: Phosphorylated ABL1(T315I)(229-499) in PBST buffer KD). Besides, in test [2], the GI50 is 10 µM.
